Source: ChEMBL document CHEMBL2331210, “New 2-benzylsulfanyl-nicotinic acid based 1,3,4-oxadiazoles: their synthesis and biological evaluation” (2013)
Values after ≈ are worked out from the molar mass of the structure shown.

How the values were obtained:
[1] = test system: UO-31; test: Antitumor activity against human UO31 cells assessed as cell growth at 0.1 uM; assay type: functional; details: read-out: Activity
[2] = test system: 786-0; test: Antitumor activity against human 786-0 cells assessed as cell growth at 0.1 uM; assay type: functional; details: read-out: Activity
[3] = test system: TK-10; test: Antitumor activity against human TK10 cells assessed as cell growth at 0.1 uM; assay type: functional; details: read-out: Activity
[4] = test system: SN12C; test: Antitumor activity against human SN12C cells assessed as cell growth at 0.1 uM; assay type: functional; details: read-out: Activity
[5] = test system: RXF 393; test: Antitumor activity against human RXF393 cells assessed as cell growth at 0.1 uM; assay type: functional; details: read-out: Activity
[6] = test system: ACHN; test: Antitumor activity against human ACHN cells assessed as cell growth at 0.1 uM; assay type: functional; details: read-out: Activity
[7] = test system: CAKI-1; test: Antitumor activity against human CAKI-1 cells assessed as cell growth at 0.1 uM; assay type: functional; details: read-out: Activity
[8] = test system: A498; test: Antitumor activity against human A498 cells assessed as cell growth at 0.1 uM; assay type: functional; details: read-out: Activity
[9] = test system: SK-OV-3; test: Antitumor activity against human SKOV3 cells assessed as cell growth at 0.1 uM; assay type: functional; details: read-out: Activity
[10] = test system: NCI/ADR-RES; test: Antitumor activity against human NCI/ADR-RES cells assessed as cell growth at 0.1 uM; assay type: functional; details: read-out: Activity
[11] = test system: OVCAR-8; test: Antitumor activity against human OVCAR8 cells assessed as cell growth at 0.1 uM; assay type: functional; details: read-out: Activity
[12] = test system: OVCAR-5; test: Antitumor activity against human OVCAR5 cells assessed as cell growth at 0.1 uM; assay type: functional; details: read-out: Activity
[13] = test system: OVCAR-3; test: Antitumor activity against human OVCAR3 cells assessed as cell growth at 0.1 uM; assay type: functional; details: read-out: Activity
[14] = test system: OVCAR-4; test: Antitumor activity against human OVCAR4 cells assessed as cell growth at 0.1 uM; assay type: functional; details: read-out: Activity
[15] = test system: IGROV-1; test: Antitumor activity against human IGROV1 cells assessed as cell growth at 0.1 uM; assay type: functional; details: read-out: Activity
[16] = test system: UACC-62; test: Antitumor activity against human UACC62 cells assessed as cell growth at 0.1 uM; assay type: functional; details: read-out: Activity
[17] = test system: UACC-257; test: Antitumor activity against human UACC257 cells assessed as cell growth at 0.1 uM; assay type: functional; details: read-out: Activity
[18] = test system: SK-MEL-5; test: Antitumor activity against human SK-MEL-5 cells assessed as cell growth at 0.1 uM; assay type: functional; details: read-out: Activity
[19] = test system: SK-MEL-28; test: Antitumor activity against human SK-MEL-28 cells assessed as cell growth at 0.1 uM; assay type: functional; details: read-out: Activity
[20] = test system: MDA-MB-435; test: Antitumor activity against human MDA-MB-435 cells assessed as cell growth at 0.1 uM; assay type: functional; details: read-out: Activity
[21] = test system: M14; test: Antitumor activity against human M14 cells assessed as cell growth at 0.1 uM; assay type: functional; details: read-out: Activity
[22] = test system: Malme-3M; test: Antitumor activity against human MALME-3M cells assessed as cell growth at 0.1 uM; assay type: functional; details: read-out: Activity
[23] = test system: LOX IMVI; test: Antitumor activity against human LOXIMVI cells assessed as cell growth at 0.1 uM; assay type: functional; details: read-out: Activity
[24] = test system: U-251; test: Antitumor activity against human U251 cells assessed as cell growth at 0.1 uM; assay type: functional; details: read-out: Activity
[25] = test system: SNB-75; test: Antitumor activity against human SNB75 cells assessed as cell growth at 0.1 uM; assay type: functional; details: read-out: Activity
[26] = test system: SF-539; test: Antitumor activity against human SF539 cells assessed as cell growth at 0.1 uM; assay type: functional; details: read-out: Activity
[27] = test system: SNB-19; test: Antitumor activity against human SNB19 cells assessed as cell growth at 0.1 uM; assay type: functional; details: read-out: Activity
[28] = test system: SF-295; test: Antitumor activity against human SF295 cells assessed as cell growth at 0.1 uM; assay type: functional; details: read-out: Activity
[29] = test system: SF-268; test: Antitumor activity against human SF268 cells assessed as cell growth at 0.1 uM; assay type: functional; details: read-out: Activity
[30] = test system: COLO 205; test: Antitumor activity against human COLO205 cells assessed as cell growth at 0.1 uM; assay type: functional; details: read-out: Activity
[31] = test system: SW-620; test: Antitumor activity against human SW620 cells assessed as cell growth at 0.1 uM; assay type: functional; details: read-out: Activity
[32] = test system: KM12; test: Antitumor activity against human KM12 cells assessed as cell growth at 0.1 uM; assay type: functional; details: read-out: Activity
[33] = test system: HCT-15; test: Antitumor activity against human HCT15 cells assessed as cell growth at 0.1 uM; assay type: functional; details: read-out: Activity
[34] = test system: HT-29; test: Antitumor activity against human HT-29 cells assessed as cell growth at 0.1 uM; assay type: functional; details: read-out: Activity
[35] = test system: HCT-116; test: Antitumor activity against human HCT116 cells assessed as cell growth at 0.1 uM; assay type: functional; details: read-out: Activity
[36] = Antitumor activity against human HCC2998 cells assessed as cell growth at 0.1 uM; assay type: functional; details: HCC 2998, read-out: Activity
[37] = test system: NCI-H460; test: Antitumor activity against human NCI-H460 cells assessed as cell growth at 0.1 uM; assay type: functional; details: read-out: Activity
[38] = test system: NCI-H522; test: Antitumor activity against human NCI-H522 cells assessed as cell growth at 0.1 uM; assay type: functional; details: read-out: Activity
[39] = test system: NCI-H23; test: Antitumor activity against human NCI-H23 cells assessed as cell growth at 0.1 uM; assay type: functional; details: read-out: Activity
[40] = test system: HOP-62; test: Antitumor activity against human HOP62 cells assessed as cell growth at 0.1 uM; assay type: functional; details: read-out: Activity
[41] = test system: HOP-92; test: Antitumor activity against human HOP92 cells assessed as cell growth at 0.1 uM; assay type: functional; details: read-out: Activity
[42] = Antitumor activity against human EKVX cells assessed as cell growth at 0.1 uM; assay type: functional; details: read-out: Activity
[43] = test system: A549; test: Antitumor activity against human A549/ATCC cells assessed as cell growth at 0.1 uM; assay type: functional; details: read-out: Activity
[44] = test system: SR; test: Antitumor activity against human SR cells assessed as cell growth at 0.1 uM; assay type: functional; details: read-out: Activity
[45] = test system: MOLT-4; test: Antitumor activity against human MOLT4 cells assessed as cell growth at 0.1 uM; assay type: functional; details: read-out: Activity
[46] = test system: RPMI-8226; test: Antitumor activity against human RPMI8226 cells assessed as cell growth at 0.1 uM; assay type: functional; details: read-out: Activity
[47] = test system: K562; test: Antitumor activity against human K562 cells assessed as cell growth at 0.1 uM; assay type: functional; details: read-out: Activity
[48] = test system: HL-60; test: Antitumor activity against human HL60(TB) cells assessed as cell growth at 0.1 uM; assay type: functional; details: read-out: Activity
[49] = test system: Mycobacterium tuberculosis; test: Antitubercular activity against Mycobacterium tuberculosis H37Rv assessed as growth inhibition after 12 to 28 days by L.J. agar MIC method; assay type: functional
[50] = test system: Aspergillus clavatus; test: Antimicrobial activity against Aspergillus clavatus MTCC 1323 assessed as growth inhibition measured after overnight incubation by broth dilution method; assay type: functional
[51] = test system: Aspergillus niger; test: Antimicrobial activity against Aspergillus niger MTCC 282 assessed as growth inhibition measured after overnight incubation by broth dilution method; assay type: functional
[52] = test system: Candida albicans; test: Antimicrobial activity against Candida albicans MTCC 227 assessed as growth inhibition measured after overnight incubation by broth dilution method; assay type: functional
[53] = test system: Pseudomonas aeruginosa; test: Antimicrobial activity against Pseudomonas aeruginosa MTCC 2488 assessed as growth inhibition measured after overnight incubation by broth dilution method; assay type: functional
[54] = test system: Escherichia coli; test: Antimicrobial activity against Escherichia coli MTCC 443 assessed as growth inhibition measured after overnight incubation by broth dilution method; assay type: functional
[55] = test system: Streptococcus pyogenes; test: Antimicrobial activity against Streptococcus pyogenes MTCC 442 assessed as growth inhibition measured after overnight incubation by broth dilution method; assay type: functional
[56] = test system: Staphylococcus aureus; test: Antimicrobial activity against Staphylococcus aureus MTCC 96 assessed as growth inhibition measured after overnight incubation by broth dilution method; assay type: functional
[57] = test system: MDA-MB-468; test: Antitumor activity against human MDA-MB-468 cells assessed as cell growth at 0.1 uM; assay type: functional; details: read-out: Activity
[58] = test system: T47D; test: Antitumor activity against human T47D cells assessed as cell growth at 0.1 uM; assay type: functional; details: read-out: Activity
[59] = Antitumor activity against human Hs 578T cells assessed as cell growth at 0.1 uM; assay type: functional; details: read-out: Activity
[60] = test system: BT-549; test: Antitumor activity against human BT549 cells assessed as cell growth at 0.1 uM; assay type: functional; details: read-out: Activity
[61] = test system: MDA-MB-231; test: Antitumor activity against human MDA-MB-231/ATCC cells assessed as cell growth at 0.1 uM; assay type: functional; details: read-out: Activity
[62] = test system: DU-145; test: Antitumor activity against human DU145 cells assessed as cell growth at 0.1 uM; assay type: functional; details: read-out: Activity
[63] = test system: MCF7; test: Antitumor activity against human MCF7 cells assessed as cell growth at 0.1 uM; assay type: functional; details: read-out: Activity
[64] = test system: PC-3; test: Antitumor activity against human PC3 cells assessed as cell growth at 0.1 uM; assay type: functional; details: read-out: Activity
[65] = test system: SK-MEL-2; test: cells; details: Homo sapiens, SK-MEL-2, read-out: Activity
Description: Antitumor activity against human SK-MEL-2 cells assessed as cell growth at 0.1 uM

CN1CCN(C(=O)CSc2nnc(-c3cccnc3SCc3ccccc3)o2)CC1
growth at 0.1 µM [1]: 30.9%
growth at 0.1 µM [2]: 109%
growth at 0.1 µM [3]: 115%
growth at 0.1 µM [4]: 64.2%
growth at 0.1 µM [5]: 89.1%
growth at 0.1 µM [6]: 80.8%
growth at 0.1 µM [7]: 93.4%
growth at 0.1 µM [8]: 78.5%
growth at 0.1 µM [9]: 101%
growth at 0.1 µM [10]: 89.2%
growth at 0.1 µM [11]: 97.7%
growth at 0.1 µM [12]: 101%
growth at 0.1 µM [13]: 92%
growth at 0.1 µM [14]: 57.4%
growth at 0.1 µM [15]: 75.3%
growth at 0.1 µM [16]: 76.8%
growth at 0.1 µM [17]: 96.8%
growth at 0.1 µM [18]: 84.8%
growth at 0.1 µM [19]: 107%
growth at 0.1 µM [20]: 93.8%
growth at 0.1 µM [21]: 99.6%
growth at 0.1 µM [22]: 97.1%
growth at 0.1 µM [23]: 90.3%
growth at 0.1 µM [24]: 83.9%
growth at 0.1 µM [25]: 83%
growth at 0.1 µM [26]: 98.6%
growth at 0.1 µM [27]: 82%
growth at 0.1 µM [28]: 89.6%
growth at 0.1 µM [29]: 67.5%
growth at 0.1 µM [30]: 110%
growth at 0.1 µM [31]: 97.2%
growth at 0.1 µM [32]: 72.8%
growth at 0.1 µM [33]: 86.5%
growth at 0.1 µM [34]: 93.7%
growth at 0.1 µM [35]: 94.7%
growth at 0.1 µM [36]: 90.5%
growth at 0.1 µM [37]: 90.1%
growth at 0.1 µM [38]: 71.3%
growth at 0.1 µM [39]: 87.6%
growth at 0.1 µM [40]: 97%
growth at 0.1 µM [41]: 43.3%
growth at 0.1 µM [42]: 70.7%
growth at 0.1 µM [43]: 68.5%
growth at 0.1 µM [44]: 79.8%
growth at 0.1 µM [45]: 48.2%
growth at 0.1 µM [46]: 61.5%
growth at 0.1 µM [47]: 83%
growth at 0.1 µM [48]: 70.3%
growth inhibition (GI) [49]: 97%
MIC ([49]; Mycobacterium tuberculosis, H37Rv): 250 µg/mL (≈ 566 µM)
MIC [50]: 1000 µg/mL (≈ 2260 µM)
MIC [51]: 500 µg/mL (≈ 1130 µM)
MIC [52]: 500 µg/mL (≈ 1130 µM)
MIC [53]: 200 µg/mL (≈ 453 µM)
MIC [54]: 100 µg/mL (≈ 226 µM)
MIC [55]: 125 µg/mL (≈ 283 µM)
MIC [56]: 250 µg/mL (≈ 566 µM)
growth at 0.1 µM [57]: 74.8%
growth at 0.1 µM [58]: 55.3%
growth at 0.1 µM [59]: 93.2%
growth at 0.1 µM [60]: 95.4%
growth at 0.1 µM [61]: 56.5%
growth at 0.1 µM [62]: 81.7%
growth at 0.1 µM [63]: 76.7%
growth at 0.1 µM [64]: 57.4%
growth at 0.1 µM [65]: 101%
